# Results as given in patent US12336981B2, “Compounds and compositions for the inhibition of NAMPT” (Valo Health, Inc., priority 2010, dated 2025).
# Where two headings read alike, the source gives them in different places.
# What was measured:
# A2780 cells = experiment: In-vitro cell proliferation assay (SRB), A2780 cells; format: cell-based; conditions: A2780 cells, 72 hours, read-out: A2780 IC50
# Protocol: In-Vitro Cell Proliferation Assay
# After overnight incubation at 37° C. and 5% CO2, the compound titrations were performed in a separate dilution plate by serially diluting the compounds in DMSO to make a 1000× stock. The compounds were then further diluted to 10× final concentration in culture media, whereupon 20 μL of each dilution was added to the plated cells with controls (e.g. DMSO and blank) to make a final volume of 200 μL. The final DMSO concentration in each well was 0.1%. The plates were then incubated for 72 hours at 37° C. in a 5% CO2 incubator. The number of viable cells was then assessed using sulforhodamine B (SRB) assay. Cells were fixed at 4° C. for 1 hour with the addition of 50 μL 30% trichloroacetic acid (TCA) to make a final concentration of 6% TCA. The plates were washed four times with H2O and allowed to dry for at least 1 hour, whereupon 100 μL of a 4% SRB in 1% acetic acid solution was added to each well and incubated at room temperature for at least 30 minutes. The plates were then washed three times with 1% acetic acid, dried, and treated with 100 μL of 10 mM Tris-Base solution. The plates were then read in a microplate reader at an absorbance of 570 nm. Background was generated on a separate plate with media only.
# Method for Determining % Inhibition
# First, the signals from the background plate are averaged, then the background was subtracted from the test plates.
# wherein X denotes the compound concentration 1, Y denotes the compound concentration 2, XX denotes the % inhibition at compound concentration 1 (X), and YY denotes the % inhibition at compound concentration 2 (Y).
# NAMPT = biological target: T1, NAMPT (Homo sapiens, UniProt P43490); experiment: Biochemical inhibition assay: NAMPT enzymatic reaction, NMN quantified by mass spectrometry; conditions: read-out: Biochem IC50
# T1 construct: His tag; host or cells: E. coli
# Protocol: Biochemical Inhibition Assay
# NAMPT Protein Purification
# Recombinant His-tagged NAMPT was produced in E. coli cells, purified over a Ni column, and further purified over a size-exclusion column by XTAL Biostructures.
# The NAMPT Enzymatic Reaction
# The NAMPT enzymatic reactions were carried out in Buffer A (50 mM Hepes pH 7.5, 50 mM NaCl, 5 mM MgCl2, and 1 mM THP) in 96-well V-bottom plates. The compound titrations were performed in a separate dilution plate by serially diluting the compounds in DMSO to make a 100× stock. […] The compound and enzyme mix was incubated for 15 minutes at room temperature, then 10 μL of 10× substrate and co-factors in Buffer A were added to the test well to make a final concentration of 1 μM NAM, 100 μM 5-Phospho-D-ribose 1-diphosphate (PRPP), and 2.5 mM Adenosine 5′-triphosphate (ATP). The reaction was allowed to proceed for 30 minutes at room temperature, then was quenched with the addition of 11 μL of a solution of formic acid and L-Cystathionine to make a final concentration of 1% formic acid and 10 μM L-Cystathionine. Background and signal strength was determined by addition (or non-addition) of a serial dilution of NMN to a pre-quenched enzyme and cofactor mix.
# A mass spectrometry-based assay was used to measure the NAMPT reaction product (NMN) and the internal control (L-Cystathionine). NMN and L-Cystathionine were detected using the services of Biocius Lifesciences with the RapidFire system. In short, the NMN and L-Cystathionine are bound to a graphitic carbon cartridge in 0.1% formic acid, eluted in 30% acetonitrile buffer, and injected into a Sciex 4000 mass spectrometer. The components of the sample were ionized with electrospray ionization and the positive ions were detected. […] The fragments are quantified and the analyzed by the following method.
# First the NMN signal is normalized to the L-Cystathionine signal by dividing the NMN signal by the L-Cystathionine signal for each well. The signal from the background wells are averaged and subtracted from the test plates. […] IC50s are Determined Using Excel and this Formula.
# [1] = Homo sapiens, A2780, 72 h, SRB assay
# T1 sequence (P43490 whole entry): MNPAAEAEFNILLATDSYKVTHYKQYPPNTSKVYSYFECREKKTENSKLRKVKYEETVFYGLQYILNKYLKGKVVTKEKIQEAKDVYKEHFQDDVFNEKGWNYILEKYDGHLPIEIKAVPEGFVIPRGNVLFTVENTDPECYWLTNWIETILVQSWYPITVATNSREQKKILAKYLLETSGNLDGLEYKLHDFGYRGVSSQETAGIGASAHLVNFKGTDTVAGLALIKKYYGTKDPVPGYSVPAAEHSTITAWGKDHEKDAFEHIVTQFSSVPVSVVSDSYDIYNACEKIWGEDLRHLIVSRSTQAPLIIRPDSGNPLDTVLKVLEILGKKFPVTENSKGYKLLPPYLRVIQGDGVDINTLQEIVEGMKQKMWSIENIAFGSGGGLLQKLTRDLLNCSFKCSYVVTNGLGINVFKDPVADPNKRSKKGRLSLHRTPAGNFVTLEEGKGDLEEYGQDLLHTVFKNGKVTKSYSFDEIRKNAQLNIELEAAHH
SMILES,"IC50 (A2780 cells; Homo sapiens, A2780, 72 h, SRB)",IC50 (NAMPT; NAMPT enzymatic assay),also measured
COc1ccc(S(=O)(=O)c2ccc(CNC(=O)c3cnc4nccn4c3)cc2)cc1,20.7 nM,,IC50 (NAMPT; NAMPT enzymatic reaction): 2.7 nM
"CNS(=O)(=O)c1ccccc1S(=O)(=O)c1ccc(CNC(=O)c2cnc3[nH]ncc3c2)cc1 [N-[(4-{[2-(methylsulfamoyl)benzene]sulfonyl}phenyl)methyl]-1H-pyrazolo[3,4-b]pyridine-5-carboxamide]",> 10000 nM,> 167 nM,
O=C(NCc1ccc(S(=O)(=O)c2cccc(C(F)(F)F)c2Cl)cc1)c1cnc2nccn2c1,24.6 nM,2.4 nM,
O=C(NCc1ccc(S(=O)(=O)c2cccc(N3CCCC3)c2)cc1)c1cnc2[nH]ncc2c1,12.8 nM,17.1 nM,
"O=C(NCc1ccc(S(=O)(=O)c2cnc(N3CCCC3)s2)cc1)c1cc2ccncc2s1 [N-({4-[2-(pyrrolidin-1-yl)-1,3-thiazole-5-sulfonyl]phenyl}methyl)thieno[2,3-c]pyridine-2-carboxamide]",0.7 nM,1.5 nM,
COc1ccc(C(C)=O)cc1S(=O)(=O)c1ccc(CNC(=O)c2cnc3nccn3c2)cc1,54.8 nM,,IC50 (NAMPT; NAMPT enzymatic reaction): 17.2 nM
"O=C(NCc1ccc(S(=O)(=O)c2cccc(OC(F)(F)F)c2)cc1)c1cc2cnccc2[nH]1 [N-[(4-{[3-(trifluoromethoxy)benzene]sulfonyl}phenyl)methyl]-1H-pyrrolo[3,2-c]pyridine-2-carboxamide]",,,IC50 (A2780 cells; [1]): 3 nM; IC50 (NAMPT; NAMPT enzymatic reaction): 5 nM
COc1cc(C)c(S(=O)(=O)c2ccc(CNC(=O)c3cc4ccncc4o3)cc2)cc1C,12.8 nM,,IC50 (NAMPT; NAMPT enzymatic reaction): 12.3 nM
O=C(NCc1ccc(S(=O)(=O)c2cccc(OC(F)F)c2)cc1)c1cc2ccncc2o1,3 nM,2.8 nM,
O=C(NCc1ccc(S(=O)(=O)c2ccc(-c3ccccc3)cc2)cc1)c1cnc2nccn2c1,7.6 nM,,
CC(=O)c1cccc(S(=O)(=O)c2ccc(CNC(=O)c3cnc4nccn4c3)cc2)c1,10.5 nM,,IC50 (NAMPT; NAMPT enzymatic reaction): 1.8 nM
O=C(NCc1ccc(S(=O)(=O)c2cccc(N3CCCCC3)c2)cc1)c1cc2ccncc2s1,13.6 nM,16.7 nM,
CCCCOc1ccc(S(=O)(=O)c2ccc(CNC(=O)c3cc4ccncc4o3)cc2)cc1Cl,10 nM,,IC50 (NAMPT; NAMPT enzymatic reaction): 4.7 nM
O=C(NCc1ccc(S(=O)(=O)c2cc(Cl)ccc2OCC(F)(F)F)cc1)c1ccc2nccn2c1,0.3 nM,1 nM,
"O=C(NCc1ccc(S(=O)(=O)c2cnc3ccccc3c2)cc1)c1cnc2nccn2c1 [N-{[4-(quinoline-3-sulfonyl)phenyl]methyl}imidazo[1,2-a]pyrimidine-6-carboxamide]",3.6 nM,2.5 nM,
"Cc1ccc(S(=O)(=O)c2ccc(CNC(=O)c3ccc4nccn4c3)cc2)cn1 [N-{[4-(6-methylpyridine-3-sulfonyl)phenyl]methyl}imidazo[1,2-a]pyridine-6-carboxamide]",13.9 nM,21.5 nM,
"Cc1ccc(S(=O)(=O)c2ccc(CNC(=O)c3cc4cnccc4[nH]3)cc2)cc1F [N-({4-[(3-fluoro-4-methylbenzene)sulfonyl]phenyl}methyl)-1H-pyrrolo[3,2-c]pyridine-2-carboxamide]",,,IC50 (A2780 cells; [1]): 6 nM; IC50 (NAMPT; NAMPT enzymatic reaction): 8 nM
"COc1ccc(C)cc1S(=O)(=O)c1ccc(CNC(=O)c2cc3ccncc3s2)cc1 [N-({4-[(2-methoxy-5-methylbenzene)sulfonyl]phenyl}methyl)thieno[2,3-c]pyridine-2-carboxamide]",,,IC50 (A2780 cells; [1]): 2.5 nM; IC50 (NAMPT; NAMPT enzymatic reaction): 6 nM
CN(C)Cc1cccc(S(=O)(=O)c2ccc(CNC(=O)c3cc4ccncc4o3)cc2)c1,6.2 nM,4.7 nM,
CCN(CC)C(=O)c1cc(F)cc(S(=O)(=O)c2ccc(CNC(=O)c3cc4cnccc4[nH]3)cc2)c1,3.3 nM,9.3 nM,
CC(C)Oc1cccc(S(=O)(=O)c2ccc(CNC(=O)c3cnc4nccn4c3)cc2)c1,10.5 nM,2.3 nM,

SMILES,"IC50 (A2780 cells; Homo sapiens, A2780, 72 h, SRB)",IC50 (NAMPT; NAMPT enzymatic assay),also measured
O=C(NCc1ccc(S(=O)(=O)c2ccccc2OC(F)(F)F)cc1)c1cc2ccncc2o1,14.6 nM,8.6 nM,
Cc1cc(C(F)(F)F)ccc1S(=O)(=O)c1ccc(CNC(=O)c2cc3ccncc3o2)cc1,63.1 nM,34.5 nM,
"Cc1cc(C)cc(S(=O)(=O)c2ccc(CNC(=O)c3cc4ccncc4s3)cc2)c1 [N-({4-[(3,5-dimethylbenzene)sulfonyl]phenyl}methyl)thieno[2,3-c]pyridine-2-carboxamide]",,,IC50 (A2780 cells; [1]): 1.8 nM; IC50 (NAMPT; NAMPT enzymatic reaction): 5 nM
"O=C(NCc1ccc(S(=O)(=O)c2cc(F)cc(F)c2)cc1)c1ccc2nccn2c1 [N-({4-[(3,5-difluorobenzene)sulfonyl]phenyl}methyl)imidazo[1,2-a]pyridine-6-carboxamide]",1.5 nM,,
O=C(NCc1ccc(S(=O)(=O)c2ccc(C(=O)N3CCCC3)cc2)cc1)c1cc2ccncc2s1,1.7 nM,,
O=C(NCc1ccc(S(=O)(=O)c2cccc(C(F)(F)F)c2)cc1)c1cnc2[nH]ncc2c1,,,"IC50 (A2780 cells; Homo sapiens, SRB): 10.4 nM"
COc1cc(OC)cc(S(=O)(=O)c2ccc(CNC(=O)c3ccc4nccn4c3)cc2)c1,1.5 nM,,
COCc1cccc(S(=O)(=O)c2ccc(CNC(=O)c3cnc4nccn4c3)cc2)c1,13.8 nM,,
"O=C(NCc1ccc(S(=O)(=O)N2CCCCC2)cc1)c1cc2cnccc2[nH]1 [N-{[4-(piperidine-1-sulfonyl)phenyl]methyl}-1H-pyrrolo[3,2-c]pyridine-2-carboxamide]",,,IC50 (A2780 cells; [1]): 200 nM
Cc1c(F)cccc1S(=O)(=O)c1ccc(CNC(=O)c2cc3ccncc3s2)cc1,,,IC50 (A2780 cells; SRB): 21.4 nM
"Cn1cc2ccc(S(=O)(=O)c3ccc(CNC(=O)c4cnc5[nH]ncc5c4)cc3)cc2n1 [N-{[4-(2-methyl-2H-indazole-6-sulfonyl)phenyl]methyl}-1H-pyrazolo[3,4-b]pyridine-5-carboxamide]",7 nM,,
"O=C(NCc1ccc(S(=O)(=O)c2ccc(C(=O)N3CCCC3)cc2)cc1)c1cc2ccncc2o1 [N-{[4-({4-[(pyrrolidin-1-yl)carbonyl]benzene}sulfonyl)phenyl]methyl}furo[2,3-c]pyridine-2-carboxamide]",1.4 nM,,
"CCOc1cccc(S(=O)(=O)c2ccc(CNC(=O)c3cc4ccncc4s3)cc2)c1 [N-({4-[(3-ethoxybenzene)sulfonyl]phenyl}methyl)thieno[2,3-c]pyridine-2-carboxamide]",2.9 nM,,
"O=C(NCc1ccc(S(=O)(=O)c2cccc3cc[nH]c23)cc1)c1cnc2[nH]ncc2c1 [N-{[4-(1H-indole-7-sulfonyl)phenyl]methyl}-1H-pyrazolo[3,4-b]pyridine-5-carboxamide]",43.2 nM,,
O=C(NCc1ccc(S(=O)(=O)c2ccc(C(=O)N3CCCC3)cc2)cc1)c1cnc2[nH]ncc2c1,9.3 nM,,
O=C(NCc1ccc(S(=O)(=O)c2cccc(-c3ncccn3)c2)cc1)c1cnc2nccn2c1,13 nM,,
"Cc1cccc(S(=O)(=O)c2ccc(CNC(=O)c3cnc4nccn4c3)cc2)c1F [N-({4-[(2-fluoro-3-methylbenzene)sulfonyl]phenyl}methyl)imidazo[1,2-a]pyrimidine-6-carboxamide]",21.5 nM,,
N#CC1(c2ccc(S(=O)(=O)c3ccc(CNC(=O)c4cnc5nccn5c4)cc3)cc2)CCCC1,4.7 nM,,
COc1cc(-n2cccn2)ccc1S(=O)(=O)c1ccc(CNC(=O)c2cnc3nccn3c2)cc1,8.7 nM,,
CC(C)COc1cccc(S(=O)(=O)c2ccc(CNC(=O)c3cc4ccncc4s3)cc2)c1,25.2 nM,,
Cc1cc(F)cc(S(=O)(=O)c2ccc(CNC(=O)c3cc4ccncc4o3)cc2)c1,,,IC50 (NAMPT; NAMPT enzymatic reaction): 3.4 nM
